From ChEMBL document CHEMBL5678810

What was measured:
[1] = biological target: Phosphatidylinositol 5-phosphate 4-kinase type-2 gamma (Homo sapiens) (UniProt Q8TBX8); assay: Inhibition of PIP4K2C ATP labeling site harboring TLVIkEVSSEDIADMHSNLSNYHQYIVK in human PC-3 cell lysate at 10 uM by KiNativ profiling analysis relative to control; assay type: subcellular
[2] = biological target: Transient receptor potential cation channel subfamily M member 6 (Homo sapiens) (UniProt Q9BX84); assay: Inhibition of T7 bacteriophage fused human TRPM6 at 10 uM by KINOMEscan analysis relative to control
Transient receptor potential cation channel subfamily M member 6 (Homo sapiens), sequence (Q9BX84 whole entry, the tested form may be a part): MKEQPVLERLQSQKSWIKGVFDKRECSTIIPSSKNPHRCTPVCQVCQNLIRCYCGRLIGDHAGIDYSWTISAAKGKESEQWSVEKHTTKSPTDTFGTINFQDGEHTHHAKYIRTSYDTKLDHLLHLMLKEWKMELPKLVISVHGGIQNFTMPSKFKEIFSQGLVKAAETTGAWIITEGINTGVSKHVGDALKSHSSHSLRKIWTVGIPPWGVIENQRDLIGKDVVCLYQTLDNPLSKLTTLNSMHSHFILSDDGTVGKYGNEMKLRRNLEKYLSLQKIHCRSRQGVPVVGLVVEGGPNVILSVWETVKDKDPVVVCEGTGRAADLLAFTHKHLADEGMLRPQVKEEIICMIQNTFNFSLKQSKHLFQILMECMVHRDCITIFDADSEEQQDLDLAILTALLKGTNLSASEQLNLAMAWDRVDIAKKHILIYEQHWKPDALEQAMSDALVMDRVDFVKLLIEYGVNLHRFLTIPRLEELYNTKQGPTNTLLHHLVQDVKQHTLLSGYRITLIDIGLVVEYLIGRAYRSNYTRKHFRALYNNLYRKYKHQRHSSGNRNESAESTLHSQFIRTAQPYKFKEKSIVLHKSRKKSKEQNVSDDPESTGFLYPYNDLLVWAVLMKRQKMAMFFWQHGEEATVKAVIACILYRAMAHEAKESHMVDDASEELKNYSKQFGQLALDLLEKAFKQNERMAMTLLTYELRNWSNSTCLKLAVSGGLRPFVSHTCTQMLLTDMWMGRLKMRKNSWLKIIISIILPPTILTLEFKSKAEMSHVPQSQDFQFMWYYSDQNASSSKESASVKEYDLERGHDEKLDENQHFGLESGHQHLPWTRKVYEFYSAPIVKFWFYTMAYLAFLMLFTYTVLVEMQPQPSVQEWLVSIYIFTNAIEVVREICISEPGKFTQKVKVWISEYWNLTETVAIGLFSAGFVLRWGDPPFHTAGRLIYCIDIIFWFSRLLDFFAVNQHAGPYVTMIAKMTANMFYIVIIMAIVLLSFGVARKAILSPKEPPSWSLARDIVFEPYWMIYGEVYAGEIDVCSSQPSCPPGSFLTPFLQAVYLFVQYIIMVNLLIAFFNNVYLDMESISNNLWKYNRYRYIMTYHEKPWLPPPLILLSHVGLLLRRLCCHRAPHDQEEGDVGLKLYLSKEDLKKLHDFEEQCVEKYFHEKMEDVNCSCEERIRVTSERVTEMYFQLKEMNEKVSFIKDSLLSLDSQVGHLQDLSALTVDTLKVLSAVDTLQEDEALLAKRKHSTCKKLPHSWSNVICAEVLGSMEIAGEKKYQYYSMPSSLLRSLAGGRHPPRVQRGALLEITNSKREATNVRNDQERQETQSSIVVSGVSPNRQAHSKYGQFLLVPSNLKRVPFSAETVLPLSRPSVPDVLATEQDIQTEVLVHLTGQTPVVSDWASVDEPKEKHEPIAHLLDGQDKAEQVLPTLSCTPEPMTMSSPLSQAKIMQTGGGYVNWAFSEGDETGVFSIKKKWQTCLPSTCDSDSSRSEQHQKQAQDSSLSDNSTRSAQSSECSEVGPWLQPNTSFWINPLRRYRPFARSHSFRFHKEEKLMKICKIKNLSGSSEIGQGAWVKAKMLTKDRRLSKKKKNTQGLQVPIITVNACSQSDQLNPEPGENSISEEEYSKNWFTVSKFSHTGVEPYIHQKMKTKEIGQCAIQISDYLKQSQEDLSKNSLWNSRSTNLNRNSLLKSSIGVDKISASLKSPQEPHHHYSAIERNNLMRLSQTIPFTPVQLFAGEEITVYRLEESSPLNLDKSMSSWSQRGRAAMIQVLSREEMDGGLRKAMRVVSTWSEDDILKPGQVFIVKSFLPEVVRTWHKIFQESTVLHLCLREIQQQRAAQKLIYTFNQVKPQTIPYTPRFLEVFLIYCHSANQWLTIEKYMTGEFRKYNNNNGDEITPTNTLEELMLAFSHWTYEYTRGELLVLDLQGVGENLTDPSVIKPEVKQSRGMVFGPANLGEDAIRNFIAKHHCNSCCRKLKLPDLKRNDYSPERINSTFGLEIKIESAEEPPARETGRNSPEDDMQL

[3] = biological target: Serine/threonine-protein kinase VRK2 (Homo sapiens) (UniProt Q86Y07); assay: Inhibition of T7 bacteriophage fused human VRK2 at 10 uM by KINOMEscan analysis relative to control
[4] = biological target: Serine/threonine-protein kinase TAO3 (Homo sapiens) (UniProt Q9H2K8); assay: Inhibition of T7 bacteriophage fused human TAOK3 at 10 uM by KINOMEscan analysis relative to control
[5] = biological target: Non-receptor tyrosine-protein kinase TYK2 (Homo sapiens) (UniProt P29597); assay: Inhibition of T7 bacteriophage fused human TYK2 JH1 catalytic domain at 10 uM by KINOMEscan analysis relative to control
Non-receptor tyrosine-protein kinase TYK2 (Homo sapiens), sequence (P29597 whole entry, the tested form may be a part): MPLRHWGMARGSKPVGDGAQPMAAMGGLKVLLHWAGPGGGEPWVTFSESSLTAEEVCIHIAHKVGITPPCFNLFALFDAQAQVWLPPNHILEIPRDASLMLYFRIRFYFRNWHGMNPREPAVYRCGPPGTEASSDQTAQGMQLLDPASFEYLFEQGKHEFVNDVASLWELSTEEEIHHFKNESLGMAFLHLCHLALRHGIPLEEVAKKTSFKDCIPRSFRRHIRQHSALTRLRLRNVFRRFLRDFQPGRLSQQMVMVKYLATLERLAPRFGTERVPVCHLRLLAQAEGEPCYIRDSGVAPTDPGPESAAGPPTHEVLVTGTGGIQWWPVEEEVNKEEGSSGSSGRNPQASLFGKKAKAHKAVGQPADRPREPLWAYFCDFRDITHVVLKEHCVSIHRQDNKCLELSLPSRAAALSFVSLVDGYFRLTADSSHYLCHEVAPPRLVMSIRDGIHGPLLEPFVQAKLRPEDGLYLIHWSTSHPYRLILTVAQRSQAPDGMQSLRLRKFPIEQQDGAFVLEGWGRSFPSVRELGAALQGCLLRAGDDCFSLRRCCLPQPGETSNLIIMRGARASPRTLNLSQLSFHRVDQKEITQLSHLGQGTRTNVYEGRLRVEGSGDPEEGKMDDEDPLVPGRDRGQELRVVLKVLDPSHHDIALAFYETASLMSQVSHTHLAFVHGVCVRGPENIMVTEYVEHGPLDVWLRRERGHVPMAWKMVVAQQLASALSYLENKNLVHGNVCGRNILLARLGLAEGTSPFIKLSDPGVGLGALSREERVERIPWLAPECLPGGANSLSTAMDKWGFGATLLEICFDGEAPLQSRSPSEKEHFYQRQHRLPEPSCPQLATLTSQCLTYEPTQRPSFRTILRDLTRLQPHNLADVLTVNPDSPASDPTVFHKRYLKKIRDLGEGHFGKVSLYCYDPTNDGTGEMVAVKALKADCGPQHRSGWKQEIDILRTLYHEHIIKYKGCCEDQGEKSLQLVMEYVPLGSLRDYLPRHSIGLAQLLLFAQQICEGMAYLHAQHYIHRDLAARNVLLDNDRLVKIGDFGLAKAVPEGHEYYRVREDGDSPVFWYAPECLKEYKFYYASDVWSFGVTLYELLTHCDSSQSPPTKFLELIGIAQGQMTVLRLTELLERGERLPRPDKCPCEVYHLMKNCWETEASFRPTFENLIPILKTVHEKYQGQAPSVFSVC

[6] = biological target: Platelet-derived growth factor receptor beta (Homo sapiens) (UniProt P09619); assay: Inhibition of T7 bacteriophage fused human PDGFRB at 10 uM by KINOMEscan analysis relative to control
[7] = biological target: MAP kinase-activated protein kinase 2 (Homo sapiens) (UniProt P49137); assay: Inhibition of T7 bacteriophage fused human MAPKAPK2 at 10 uM by KINOMEscan analysis relative to control
[8] = biological target: Serine/threonine-protein kinase SBK1 (Homo sapiens) (UniProt Q52WX2); assay: Inhibition of T7 bacteriophage fused human SBK1 at 10 uM by KINOMEscan analysis relative to control
[9] = biological target: Cyclin-dependent kinase-like 5 (Homo sapiens) (UniProt O76039); assay: Inhibition of T7 bacteriophage fused human CDKL5 at 10 uM by KINOMEscan analysis relative to control
[10] = biological target: SRSF protein kinase 2 (Homo sapiens) (UniProt P78362); assay: Inhibition of T7 bacteriophage fused human SRPK2 at 10 uM by KINOMEscan analysis relative to control
SRSF protein kinase 2 (Homo sapiens), sequence (P78362 whole entry, looked up, the tested form may be a part): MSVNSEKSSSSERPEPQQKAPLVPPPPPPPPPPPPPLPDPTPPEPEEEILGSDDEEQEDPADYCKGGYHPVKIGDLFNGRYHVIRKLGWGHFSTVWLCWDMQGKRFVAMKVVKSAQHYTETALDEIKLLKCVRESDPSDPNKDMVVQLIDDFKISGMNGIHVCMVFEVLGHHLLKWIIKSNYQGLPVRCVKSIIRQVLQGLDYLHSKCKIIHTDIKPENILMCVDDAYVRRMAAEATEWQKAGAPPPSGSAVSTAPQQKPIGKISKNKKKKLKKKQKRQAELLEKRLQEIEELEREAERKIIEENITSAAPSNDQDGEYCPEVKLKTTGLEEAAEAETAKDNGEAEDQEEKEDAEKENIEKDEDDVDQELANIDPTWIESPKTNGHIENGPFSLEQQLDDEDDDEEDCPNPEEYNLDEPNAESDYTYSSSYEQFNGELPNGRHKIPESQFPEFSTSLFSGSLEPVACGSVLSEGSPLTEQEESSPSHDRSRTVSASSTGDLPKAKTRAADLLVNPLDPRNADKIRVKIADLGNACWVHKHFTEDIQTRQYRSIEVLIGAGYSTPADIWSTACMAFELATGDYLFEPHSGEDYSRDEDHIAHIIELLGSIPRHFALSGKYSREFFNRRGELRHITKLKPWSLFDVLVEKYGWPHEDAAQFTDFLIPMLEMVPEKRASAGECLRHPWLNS

[11] = biological target: Activin receptor type-2A (Homo sapiens) (UniProt P27037); assay: Inhibition of T7 bacteriophage fused human ACVR2A at 10 uM by KINOMEscan analysis relative to control
[12] = biological target: Cyclin-dependent kinase 7 (Homo sapiens) (UniProt P50613); assay: Inhibition of T7 bacteriophage fused human CDK7 at 10 uM by KINOMEscan analysis relative to control
[13] = biological target: Cyclin-dependent kinase 11B (Homo sapiens) (UniProt P21127); assay: Inhibition of T7 bacteriophage fused human CDK11 at 10 uM by KINOMEscan analysis relative to control
[14] = biological target: Mitogen-activated protein kinase kinase kinase kinase 5 (Homo sapiens) (UniProt Q9Y4K4); assay: Inhibition of T7 bacteriophage fused human MAP4K5 at 10 uM by KINOMEscan analysis relative to control
[15] = biological target: SRSF protein kinase 3 (Homo sapiens) (UniProt Q9UPE1); assay: Inhibition of T7 bacteriophage fused human SRPK3 at 10 uM by KINOMEscan analysis relative to control
SRSF protein kinase 3 (Homo sapiens), sequence (Q9UPE1 whole entry, the tested form may be a part): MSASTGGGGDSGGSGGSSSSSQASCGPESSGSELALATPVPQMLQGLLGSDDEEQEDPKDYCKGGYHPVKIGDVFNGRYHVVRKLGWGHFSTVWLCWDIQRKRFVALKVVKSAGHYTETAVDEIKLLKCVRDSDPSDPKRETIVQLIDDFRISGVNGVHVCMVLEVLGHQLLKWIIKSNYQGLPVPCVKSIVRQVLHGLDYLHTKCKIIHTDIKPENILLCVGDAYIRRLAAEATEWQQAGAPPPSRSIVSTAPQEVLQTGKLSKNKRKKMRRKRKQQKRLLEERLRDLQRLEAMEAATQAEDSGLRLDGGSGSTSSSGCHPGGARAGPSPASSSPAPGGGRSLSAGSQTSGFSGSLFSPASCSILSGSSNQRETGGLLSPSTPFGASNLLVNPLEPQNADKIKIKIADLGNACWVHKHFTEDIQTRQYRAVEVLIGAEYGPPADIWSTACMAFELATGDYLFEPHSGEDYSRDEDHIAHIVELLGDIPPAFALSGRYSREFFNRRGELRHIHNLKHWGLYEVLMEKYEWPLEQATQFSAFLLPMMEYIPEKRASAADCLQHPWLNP

[16] = biological target: Interleukin-1 receptor-associated kinase 3 (Homo sapiens) (UniProt Q9Y616); assay: Inhibition of T7 bacteriophage fused human IRAK3 at 10 uM by KINOMEscan analysis relative to control
[17] = biological target: Uncharacterized serine/threonine-protein kinase SBK3 (Homo sapiens) (UniProt P0C264); assay: Inhibition of T7 bacteriophage fused human SgK110 at 10 uM by KINOMEscan analysis relative to control
[18] = biological target: Platelet-derived growth factor receptor alpha (Homo sapiens) (UniProt P16234); assay: Inhibition of T7 bacteriophage fused human PDGFRA at 10 uM by KINOMEscan analysis relative to control
[19] = test system: eIF-2-alpha kinase GCN2 (Homo sapiens), Q9P2K8 [S808G]; assay: Inhibition of T7 bacteriophage fused human GCN2 S808G mutant Kinase domain-2 at 10 uM by KINOMEscan analysis relative to control
[20] = biological target: Myotonin-protein kinase (Homo sapiens) (UniProt Q09013); assay: Inhibition of T7 bacteriophage fused human DMPK at 10 uM by KINOMEscan analysis relative to control
[21] = biological target: RAF proto-oncogene serine/threonine-protein kinase (Homo sapiens) (UniProt P04049); assay: Inhibition of T7 bacteriophage fused human RAF1 at 10 uM by KINOMEscan analysis relative to control
[22] = biological target: Hepatocyte growth factor receptor (Homo sapiens) (UniProt P08581); assay: Inhibition of T7 bacteriophage fused human MET at 10 uM by KINOMEscan analysis relative to control
[23] = biological target: Testis-specific serine/threonine-protein kinase 1 (Homo sapiens) (UniProt Q9BXA7); assay: Inhibition of T7 bacteriophage fused human TSSK1B at 10 uM by KINOMEscan analysis relative to control
[24] = test system: Mast/stem cell growth factor receptor Kit (Homo sapiens), P10721 [D816H]; assay: Inhibition of T7 bacteriophage fused human KIT D816H mutant at 10 uM by KINOMEscan analysis relative to control
[25] = biological target: BDNF/NT-3 growth factors receptor (Homo sapiens) (UniProt Q16620); assay: Inhibition of T7 bacteriophage fused human TRKB at 10 uM by KINOMEscan analysis relative to control
[26] = test system: Epidermal growth factor receptor (Homo sapiens), P00533 [T790M]; assay: Inhibition of T7 bacteriophage fused human EGFR T790M mutant at 10 uM by KINOMEscan analysis relative to control; values are per cent of control
[27] = biological target: Ribosomal protein S6 kinase alpha-6 (Homo sapiens) (UniProt Q9UK32); assay: Inhibition of T7 bacteriophage fused human C-terminal RSK4 Kinase domain-2 at 10 uM by KINOMEscan analysis relative to control
[28] = test system: Tyrosine-protein kinase ABL1 (Homo sapiens), P00519 [M351T]; assay: Inhibition of T7 bacteriophage fused human phosphorylated ABL1 M351T mutant at 10 uM by KINOMEscan analysis relative to control
[29] = biological target: Tyrosine-protein kinase FRK (Homo sapiens) (UniProt P42685); assay: Inhibition of T7 bacteriophage fused human FRK at 10 uM by KINOMEscan analysis relative to control; values are per cent of control
[30] = biological target: Phosphatidylinositol 4,5-bisphosphate 3-kinase catalytic subunit delta isoform (Homo sapiens) (UniProt O00329); assay: Inhibition of T7 bacteriophage fused human PIK3CD at 10 uM by KINOMEscan analysis relative to control
[31] = biological target: Tyrosine-protein kinase TXK (Homo sapiens) (UniProt P42681); assay: Inhibition of T7 bacteriophage fused human TXK at 10 uM by KINOMEscan analysis relative to control
Tyrosine-protein kinase TXK (Homo sapiens), sequence (P42681 whole entry, the tested form may be a part): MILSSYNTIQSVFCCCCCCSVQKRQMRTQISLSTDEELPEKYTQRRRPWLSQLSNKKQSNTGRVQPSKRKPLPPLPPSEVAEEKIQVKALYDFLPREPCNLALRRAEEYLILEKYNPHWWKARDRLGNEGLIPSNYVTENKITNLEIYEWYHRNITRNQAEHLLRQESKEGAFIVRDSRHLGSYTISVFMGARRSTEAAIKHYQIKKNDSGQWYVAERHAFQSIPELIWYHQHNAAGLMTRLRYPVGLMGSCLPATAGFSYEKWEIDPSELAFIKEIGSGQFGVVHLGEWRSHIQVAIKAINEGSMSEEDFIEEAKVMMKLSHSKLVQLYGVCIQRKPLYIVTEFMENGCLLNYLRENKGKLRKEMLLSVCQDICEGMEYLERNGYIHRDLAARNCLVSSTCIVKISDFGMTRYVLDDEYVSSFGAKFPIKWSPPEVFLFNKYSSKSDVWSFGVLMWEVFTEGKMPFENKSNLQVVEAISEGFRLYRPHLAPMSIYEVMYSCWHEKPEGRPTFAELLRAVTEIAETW

Q: How did the inhibition [1] turn out when `COc1cc(C(=O)N2CCC(N3CCN(C)CC3)CC2)ccc1Nc1ncc2c(n1)N(C1CCCC1)c1ccccc1C(=O)N2C` was run?
A: -0.1%

Q: What about the inhibition [2] of the same compound?
A: 100%

Q: What about the inhibition [3] of the same compound?
A: 100%

Q: What about the inhibition [4] of the same compound?
A: 100%

Q: And the inhibition [5]?
A: 100%

Q: What does the source list for `COc1cc(N2CCC(N3CCN(C)CC3)CC2)ccc1Nc1ncc2c(n1)N(C)c1ccccc1C(=O)N2C`?
A: inhibition [6]: 100%; inhibition [7]: 100%; inhibition [8]: 100%; inhibition [9]: 100%; inhibition [10]: 100%; inhibition [2]: 100%; inhibition [11]: 100%; inhibition [12]: 86%; inhibition [13]: 100%; inhibition [14]: 100%; inhibition [15]: 72%; inhibition [16]: 100%; inhibition [17]: 62%; inhibition [18]: 100%; inhibition [3]: 99%; inhibition [19]: 95%; inhibition [20]: 100%; inhibition [21]: 100%; inhibition [22]: 100%; inhibition [23]: 60%; inhibition [24]: 100%; inhibition [25]: 100%; residual activity [26]: 88%; inhibition [27]: 2.2%; inhibition [28]: 94%; residual activity [29]: 34%; inhibition [30]: 62%; inhibition [4]: 24%; inhibition [5]: 52%; inhibition [31]: 91%

Q: What does the source list for `CCOc1cc(C(=O)N2CCC(N3CCN(C)CC3)CC2)ccc1Nc1ncc2c(n1)N(C1CCCC1)c1ccccc1C(=O)N2C`?
A: inhibition [10]: 100%; inhibition [15]: 100%; inhibition [23]: 100%; inhibition [25]: 100%; inhibition [31]: 100%
